One data set addresses MtbIspE (Mycobacterium tuberculosis, UniProt P9WKG7). Put plainly: MtbIspE binding study via MicroScale Thermophoresis (MST). The following applies: for MtbIspE binding at 20 μM: MST, 20 μM ligand, 200 nM MtbIspE, triplicate, qualitative. In general terms: In MST a laser heats a spot of the sample, and binding alters the fluorescence response.
A short description of a further data set: physchem. The conditions noted are these: aqueous with cosolvent or surfactant or cyclodextrin, kinetic from dmso stock, solubility 5% DMSO in PBS.
A short description of data set [1]: solubility in M. tuberculosis 7H9 growth medium. The class given is physicochemical. The conditions noted are these: M. tuberculosis 7H9 growth medium, plasma or biological fluid, kinetic from dmso stock; Mtb 7H9 growth medium. As for the experimental part: Prior to biological evaluation of the tdDCC hits, we tested their solubility in a standard buffer as well as in M. tuberculosis 7H9 growth medium. […] Regrettably, with 3.3 μM the least soluble compound is E1, making our most amplified and promising compound unsuitable for biological evaluation. We assessed the solubility in Mtb growth medium given that it is a complex, nutrient-rich environment with a distinct solubility profile. However, the trend continued, only seven hits are soluble at 8 μM or above, the remaining five compounds, including E1, were not eligible for antitubercular activity testing (Table 1).
Determination of in vitro anti-tubercular activity and solubility in 7H9 medium Anti-tubercular tests were performed as previously described .1 In brief, 7H9 complete medium (BD Difco; Becton Dickinson, Maryland,USA) supplemented with 10% OADC (BD), 0.2% glycerol, and 0.05% Tween80 as previously described ,3 was used to culture Mycobacterium tuberculosis (Mtb) strain H37Rv (ATCC 25618) carrying a mCherry -expressing plasmid (pCherry10 ).4 Cultures were harvested at mid-log phase and frozen in aliquots at – 80 °C. Prior to testing aliquots were thawed followed by centrifugation and the pellet was resuspended in 7H9 medium with 10% OADC (without glycerol and Tween80). This was further thoroughly resuspended by passing it through a syringe with a 26 -gauge needle to avoid clumping of the bacteria. 2×10^5 CFU (colony forming units) were then cultured in a total volume of 100 μl culture medium (triplicates) to test the non-precipitating compounds for the anti-tubercular activity at the concentrations indicated. For these assays, 96-well flat clear bottom black polystyrene microplates (Corning® CellBIND®, Merck, New York, USA) wer e used. Each plate had Rifampicin (at 1 μg/ml and 0.1 μg/ml) (National Reference Center, Borstel) as a reference compound. Plates were sealed with an air -permeable membrane (Porvair Sciences, Wrexham, UK) in a 37 °C incubator with mild agitation (TiMix5, Edmund Bühler, Germany). The activity of compounds was determined after 7 days by measuring the bacterial growth as relative light units (RLU) from the fluorescence intensity obtained at an excitation wavelength of 575 nm and an emission wavelength of 635 n m in a microplate reader (Synergy 2, BioTek Instruments, Vermont, USA). Two independent experiments (each in triplicates) were performed, and all values were normalized to untreated control sample (100%) in each experiment.
To obtain information regarding the toxicity of our compounds, their impact on the viability of human cells was investigated. HepG2 cells (2x10^4 cells per well) were seeded in 96 -well, flat-bottomed culture plates in 100 µL culture medium (DMEM containing 10% fetal calve serum, 1% penicillin -streptomycin). Twenty-four hours after seeding the cells, medium was removed and replaced by medium containing test compounds in a final DMSO concentration of 1%. Compounds were tested in duplicates at a single concentration or, for CC50 determination, at 8 concentrations that were prepared via 2 -fold serial dilutions in 1% DMSO/medium. Epirubicin and doxorubicin were used as positive controls in serial dilutions starting from 10 µM, and rifampicin was used as a negative control (at 100 µM). The living cell mass was determined 48 h after treatment with compounds by adding 0.1 volumes of 3 -(4,5-dimethylthiazol-2-yl)-2,5-diphenyltetrazolium bromide (MTT) solution (5 mg/mL sterile PBS) (Sigma, St. Louis, MO) to the wells. After incubating the cells for 30 min at 37 °C (atmosphere containing 5% CO2), medium was removed and MTT crystals were dissolved in 75 µL of a solution containing 10% SDS and 0.5% acetic acid in DMSO. The optical density (OD) of the samples was determined photometrically at 570 nm in a PHERAstar Omega plate reader (BMG labtech, Ortenberg, Germany). To obtain percent viability for each sample, their ODs were related to those of DMSO controls. […]

Another data set in a line: in vitro. The following applies: human, HepG2 CC50, HepG2, 48 h, MTT.
In the next data set the test system is fungi. On the set-up: method as in PMID 25943854. The conditions noted are these: cited from earlier work.

In brackets after ≈: the same amount, converted by molar mass. Several values for one entry are separate records, joined by “and”; a condition that tells them apart may be missing. Identical values can stand only once.

Sequence of MtbIspE (P9WKG7 whole entry): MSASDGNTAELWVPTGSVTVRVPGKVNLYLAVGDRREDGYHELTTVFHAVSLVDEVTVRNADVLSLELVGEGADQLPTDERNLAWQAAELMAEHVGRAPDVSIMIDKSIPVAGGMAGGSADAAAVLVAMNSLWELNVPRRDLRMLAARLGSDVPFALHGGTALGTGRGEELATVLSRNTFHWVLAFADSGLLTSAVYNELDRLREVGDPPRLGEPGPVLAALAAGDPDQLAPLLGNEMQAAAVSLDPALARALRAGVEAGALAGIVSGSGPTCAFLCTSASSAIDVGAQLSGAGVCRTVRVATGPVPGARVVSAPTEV

With `COc1ccc(-c2cc(/C=N/NC(=O)c3cc(CC(C)C)n[nH]3)no2)cc1` [D6, (E)-3-Isobutyl-N′-((5-(4-methoxyphenyl)isoxazol-3-yl)methylene)-1H-pyrazole-5-carbohydrazide], on MtbIspE, the “MtbIspE binding at 20 μM” value is reported as “No”. Besides, the solubility (commonly how much of the substance goes into solution per volume) at 5 min in “physchem” was determined as 20 ± 10 µM (≈ 7.35 µg/mL). In data set [1], the solubility is 16 µM. Besides, the CC50 in “in vitro” is > 50 µM.
Turning to `O=C(N/N=C/c1ccc(C(F)(F)F)cc1)c1cccc(Cl)c1` [K4, (E)-3-Chloro-N′-(4-(trifluoromethyl)benzylidene)benzohydrazide], the “MtbIspE binding at 20 μM” value at MtbIspE is “binding in only one measurement and 1/3”. In addition, the solubility at 5 min in the data set “physchem” amounted to 21 ± 6 µM (≈ 6.86 µg/mL). Besides, in data set [1], the solubility was determined as 8 µM. For the same compound, the CC50 in “in vitro” is > 50 µM.
As for `O=C(N/N=C/c1cc(Cl)ccc1O)c1ccncc1` [L1, (E)-N′-(5-Chloro-2-hydroxybenzylidene)isonicotinohydrazide], at MtbIspE, the “MtbIspE binding at 20 μM” value is “did not bind and No”. Besides, at MtbIspE (saturation MST experiment), the “MtbIspE binding in saturation MST experiment” value was “no binding”. In the data set “physchem”, the solubility at 5 min was 108 ± 3 µM (≈ 29.8 µg/mL). Moreover, the antifungal properties entry with fungi is listed as “antifungal properties”. The solubility in data set [1] was found to be 16 µM. The CC50 in the data set “in vitro” is ~50 µM.

The record behind these values is publication PMC11391541, “Target-Directed Dynamic Combinatorial Chemistry Affords Binders of Mycobacterium tuberculosis IspE” (ACS Omega, 2024).
